Results taken from the supplement of paper PMC13380429.
Counter-ions that a name gives are not always drawn.

Assays:
Details in all cases: 72 h
HepG2 [1] = assay: cell viability relative to DMSO; higher = less toxic
U2OS [2] = assay: as above
Caco-2 [3] = assay: as above
Vero E6 [4] = assay: as above
HepG2 [5] = assay: drug sensitivity score (DSS) for viability; higher = more toxic; extreme values may be limits of the assay
U2OS [6] = assay: as above
Caco-2 [7] = assay: as above
Vero E6 [8] = assay: as above
HepG2 [9] = assay: relative viability EC50 (midpoint between 100% and the lowest measured viability); higher = less toxic
U2OS [10] = assay: as above
Caco-2 [11] = assay: as above
Vero E6 [12] = assay: as above
Calu-3 [13] = assay: cell viability relative to DMSO; higher = less toxic
Calu-3 [14] = assay: drug sensitivity score (DSS) for viability; higher = more toxic; extreme values may be limits of the assay

| Structure (SMILES) | cell viability (HepG2 [1]; 1 nM) [%] | cell viability (HepG2 [1]; 10 nM) [%] | cell viability (HepG2 [1]; 100 nM) [%] | cell viability (HepG2 [1]; 1000 nM) [%] | cell viability (HepG2 [1]; 10000 nM) [%] | cell viability (U2OS [2]; 1 nM) [%] | cell viability (U2OS [2]; 10 nM) [%] | cell viability (U2OS [2]; 100 nM) [%] | cell viability (U2OS [2]; 1000 nM) [%] | cell viability (U2OS [2]; 10000 nM) [%] | cell viability (Caco-2 [3]; 1 nM) [%] | cell viability (Caco-2 [3]; 10 nM) [%] | cell viability (Caco-2 [3]; 100 nM) [%] | cell viability (Caco-2 [3]; 1000 nM) [%] | cell viability (Caco-2 [3]; 10000 nM) [%] | cell viability (Vero E6 [4]; 1 nM) [%] | cell viability (Vero E6 [4]; 10 nM) [%] | cell viability (Vero E6 [4]; 100 nM) [%] | cell viability (Vero E6 [4]; 1000 nM) [%] | cell viability (Vero E6 [4]; 10000 nM) [%] | drug sensitivity score (HepG2 [5]) | drug sensitivity score (U2OS [6]) | drug sensitivity score (Caco-2 [7]) | drug sensitivity score (Vero E6 [8]) | relative viability EC50 (HepG2 [9]) [µM] | relative viability EC50 (U2OS [10]) [µM] | relative viability EC50 (Caco-2 [11]) [µM] | relative viability EC50 (Vero E6 [12]) [µM] | cell viability (Calu-3 [13]; 1 nM) [%] | cell viability (Calu-3 [13]; 10 nM) [%] | cell viability (Calu-3 [13]; 100 nM) [%] | cell viability (Calu-3 [13]; 1000 nM) [%] | cell viability (Calu-3 [13]; 10000 nM) [%] | drug sensitivity score (Calu-3 [14]) |
| --- | --- | --- | --- | --- | --- | --- | --- | --- | --- | --- | --- | --- | --- | --- | --- | --- | --- | --- | --- | --- | --- | --- | --- | --- | --- | --- | --- | --- | --- | --- | --- | --- | --- | --- |
| CS(=O)(=O)c1ccc(Oc2cc(F)cc(C#N)c2)c2c1[C@H](O)C(F)(F)C2 [PT-2385] | 103 | 107 | 97.4 | 97.2 | 104 | 103 | 97.3 | 98.7 | 100 | 99.4 | 102 | 94.9 | 88.9 | 86.3 | 95.2 | 101 | 99.6 | 100 | 96.9 | 105 | 0 | 0 | 1.7 | 0 | > 10 | > 10 | > 10 | > 10 | – | – | – | – | – | – |
| N#Cc1c(Oc2ccc(F)c(NC(=O)Cc3cccc(C(F)(F)F)c3)c2)ccc2nc(NC(=O)C3CC3)sc12 [TAK-632] | 99.9 | 106 | 85.1 | 29 | 17.2 | 97.9 | 102 | 94.8 | 99 | 37.8 | 100 | 99.4 | 91.8 | 84.9 | 55.6 | 100 | 106 | 104 | 79 | 32.3 | 14.9 | 3.5 | 3.8 | 6.8 | 0.289 | 3.05 | – | 1.37 | 105 | 105 | 110 | 93 | 61.6 | 3 |
| O=C(NNC(=O)c1ccc(CNS(=O)(=O)c2ccc(F)c(Cl)c2)cc1)c1ccccc1 [TCN201] | 89.3 | 108 | 97 | 90.7 | 97.7 | 96.3 | 99.8 | 97.7 | 94 | 96.4 | 109 | 108 | 99.1 | 99.8 | 103 | 104 | 98.5 | 98.4 | 102 | 102 | 0 | 0 | 0 | 0 | > 10 | > 10 | > 10 | > 10 | – | – | – | – | – | – |
| CN(C)CCOc1ccc(/C(=C(/CCCl)c2ccccc2)c2ccccc2)cc1 [Toremifene citrate] | 110 | 103 | 104 | 90 | 68.8 | 106 | 103 | 105 | 99 | 87.8 | 109 | 98.8 | 93.7 | 96.3 | 60.4 | 99.6 | 99.3 | 99.8 | 97.6 | 91.9 | 2.8 | 0.1 | 2.6 | 0 | – | > 10 | – | > 10 | 94.1 | 100 | 88.7 | 90.4 | 57.5 | 3.4 |
